From US5902810A, “Pteridine derivatives as no synthase inhibitors” (Hoechst Aktiengesellschaft, priority 1994, dated 1999)

Biological target: T1, purified NO synthase from pig cerebellum (Sus scrofa, UniProt F1RKF2)
T1 construct: purified NO synthase from pig cerebellum; from tissue; host or cells: pig cerebellum
Experiment: Inhibition of the activity of purified nitric oxide synthase (NOS), 3H-L-citrulline formation, enzyme from pig cerebellum
Type: biochemical
Settings: 0.25 h, substance 100 μM, antagonistic test in the presence of 2 μM tetrahydrobiopterin, 37° C., 15 minutes, read-out: Citrulline formation (% of the control)
Procedure: In this assay for purified NO synthase (NOS) the coproduct L-citrulline obtained during NO formation is determined quantitatively. This is carried out by the use of ^3 H-radiolabeled L-arginine as a substrate of the enzyme reaction, which is reacted to give ^3 H-L-citrulline and NO. After the enzyme incubation is complete, resulting L-citrulline is removed from unused L-arginine by means of ion-exchange chromatography of the reaction mixture; the ^3 H-activity determined by liquid scintillation measurement then corresponds to the amount of L-citrulline.
The coproduct L-citrulline obtained during the formation of NO by purified NOS is determined quantitatively in this activity assay. The substrate of the enzyme reaction employed is ^3 H-radiolabeled L-arginine, which is reacted to give ^3 H-L-citrulline and NO. After the enzyme incubation is complete, resulting L-citrulline is removed from unused L-arginine by means of ion-exchange chromatography of the reaction mixture; the ^3 H activity measured by liquid scintillation then corresponds to the amount of L-citrulline, which is a direct measure of the activity of NOS.
The base medium for carrying out the enzyme reaction is TE buffer (triethanolamine, EDTA, pH 7.0). The final volume of each incubation is 100 μl. The reaction mixture is obtained by mixing the following 6 components on ice:
"REA mix" (pH 7.0), which contains triethanolamine, calcium chloride, magnesium chloride, EDTA, L-arginine, calmodulin and flavine adenine dinucleotide (FAD);
2. freshly prepared stock solution of β-nicotinamide adenine dinucleotide phosphate, reduced form (NADPH); […]
Triethanolamine 50 mM, EDTA 0.5 mM, CaCl2 226 μM, MgCl2 477 μM, L-arginine 50 μM, calmodulin 0.5 μM, FAD 5 μM, NADPH 1 mM, BH4 (if added) 2 μM, substance to be tested 100 μM. […] 9 ml of scintillator solution are added to the 3 ml aqueous measuring solution and the homogeneous mixture is measured for 1 minute per sample in a Tricarb 2500 TR (Packard) liquid scintillation counter. […]

remaining activity at 100 µM [%]	Compound
60.8	CC(NC(=O)OCc1ccccc1)C(=O)OCc1cnc2nc(N)[nH]c(=O)c2n1 (stereo not shown) [Example 21]
22.9	CSCc1cnc2nc(N)[nH]c(=O)c2n1 [Example 37]
2.5	Nc1nc2ncc(COC(=O)C(Cc3ccccc3)NC(=O)OCc3ccccc3)nc2c(=O)[nH]1 (stereo not shown) [Example 23]

Tested on: purified NO synthase from pig liver
Experiment: Inhibition of the activity of purified nitric oxide synthase (NOS), 3H-L-citrulline formation, enzyme from pig liver
Type: biochemical
Settings: substance 100 μM, antagonistic test in the presence of 2 μM tetrahydrobiopterin, 37° C., 15 minutes
From the text: The inhibition of NO release by the compounds of the formula I can be determined by an activity assay based on the studies of Bredt and Snyder and also Schmidt et al. (see D. S. Bredt and S. S. Snyder, Isolation of nitric oxide synthase, a calmodulin-requiring enzyme, Proc. Natl. Acad. Sci. USA 87 (1990), 682; H. H. H. W. Schmidt et al., Purification of a soluble isoform of guanylyl cyclase-activating factor synthase, Proc. Natl. Acad. Sci. USA 88 (1991), 365). In this assay for purified NO synthase (NOS) the coproduct L-citrulline obtained during NO formation is determined quantitatively. […] After the enzyme incubation is complete, resulting L-citrulline is removed from unused L-arginine by means of ion-exchange chromatography of the reaction mixture; the ^3 H-activity determined by liquid scintillation measurement then corresponds to the amount of L-citrulline. […]
The coproduct L-citrulline obtained during the formation of NO by purified NOS is determined quantitatively in this activity assay. […] After the enzyme incubation is complete, resulting L-citrulline is removed from unused L-arginine by means of ion-exchange chromatography of the reaction mixture; the ^3 H activity measured by liquid scintillation then corresponds to the amount of L-citrulline, which is a direct measure of the activity of NOS. […]

Citrulline formation (% of the control)	Compound
22.4 % of the control	N=c1[nH]c(N)nc2ncc(CN)nc12 [Example 76]

Tested on: NO synthase
Experiment: not given
Settings: literature reports (Kwon et al.; Giovanelli et al.; Hevel and Marletta); cited from earlier work

Compound	Effect on NO production / NO synthase activity
Nc1nc2nccnc2c(=O)[nH]1 [pterin]	no significant effects
C[C@H](O)[C@H](O)c1cnc2nc(N)[nH]c(=O)c2n1 [biopterin]	no significant effects
Nc1nc2ncc(CNc3ccc(C(=O)N[C@@H](CCC(=O)O)C(=O)O)cc3)nc2c(=O)[nH]1 [folic acid]	no significant effects
C[C@H](O)[C@H](O)C1=Nc2c(nc(N)[nH]c2=O)NC1 [7,8-dihydrobiopterin]	Stimulation of NO production
CC1CNc2nc(N)[nH]c(=O)c2N1 (stereo not shown) [6-methyl-5,6,7,8-tetrahydropterin]	increase in NO synthase activity
C[C@H](O)[C@H](O)[C@H]1CNc2nc(N)[nH]c(=O)c2N1 [tetrahydrobiopterin]	stimulates NO production
